Measurements: ChEMBL document CHEMBL1152067, “Design and syntheses of 4-acylaminopyridine derivatives: Novel high affinity choline uptake enhancers I” (Bioorg Med Chem Lett, 1995)

What was measured:
Conditions in all cases: Hippocampus
[1] = molecular target: High-affinity choline transporter 1 (Rattus norvegicus) (UniProt Q9JMD7); assay: Effect on uptake amount of [3H]choline in the hippocampal synaptosomes of AF64A-treated rats at a concentration of 10e-5 M.
[2] = molecular target: High-affinity choline transporter 1 (Rattus norvegicus) (UniProt Q9JMD7); assay: Effect on uptake amount of [3H]choline in the hippocampal synaptosomes of AF64A-treated rats at a concentration of 10e-6 M.
[3] = molecular target: High-affinity choline transporter 1 (Rattus norvegicus) (UniProt Q9JMD7); assay: Effect on uptake amount of [3H]choline in the hippocampal synaptosomes of AF64A-treated rats at a concentration of 10e-7 M.

High-affinity choline transporter 1 (Rattus norvegicus), sequence (Q9JMD7 whole entry, looked up): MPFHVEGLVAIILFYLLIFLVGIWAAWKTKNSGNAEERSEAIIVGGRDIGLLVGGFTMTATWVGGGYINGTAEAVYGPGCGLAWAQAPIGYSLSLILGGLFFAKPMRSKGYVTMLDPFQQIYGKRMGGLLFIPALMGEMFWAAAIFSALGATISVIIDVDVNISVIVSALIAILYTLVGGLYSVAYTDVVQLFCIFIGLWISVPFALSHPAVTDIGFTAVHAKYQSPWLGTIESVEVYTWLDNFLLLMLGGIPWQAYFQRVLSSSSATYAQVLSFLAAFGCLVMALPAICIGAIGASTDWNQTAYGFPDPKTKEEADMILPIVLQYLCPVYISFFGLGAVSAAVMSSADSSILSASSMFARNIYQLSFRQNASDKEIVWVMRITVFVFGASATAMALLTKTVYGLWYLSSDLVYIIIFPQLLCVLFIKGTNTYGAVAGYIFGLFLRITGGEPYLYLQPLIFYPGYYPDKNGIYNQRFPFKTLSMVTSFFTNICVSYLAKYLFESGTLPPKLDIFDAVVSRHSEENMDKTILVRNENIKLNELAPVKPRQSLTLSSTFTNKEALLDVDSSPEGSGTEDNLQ

Question: With `O=C(CN1CCCCC1=O)Nc1c2c(nc3ccccc13)CCCC2` as the molecule, how does the HACU improvement [1] read?
Answer: 5%

Question: What about the HACU improvement [2] of the same molecule?
Answer: 2%

Question: And the HACU improvement [3]?
Answer: -3%

Question: How did the HACU improvement [1] turn out when `O=C1CN(CC(=O)Nc2c3c(nc4ccccc24)CCCC3)C(=O)N1` was run?
Answer: 10%

Question: And the HACU improvement [2]?
Answer: 11%

Question: What about the HACU improvement [3] of the same molecule?
Answer: 15%

Question: `O=C(O)CNCC(=O)Nc1c2c(nc3ccccc13)CCCC2` was tested. Which HACU improvement [1] did it give?
Answer: 27%

Question: What about the HACU improvement [2] of the same molecule?
Answer: -2%

Question: What about the HACU improvement [3] of the same molecule?
Answer: -4%

Question: For `CC(=O)Nc1c2c(nc3ccccc13)CCCC2`, which HACU improvement [1] is on record?
Answer: -11%

Question: And the HACU improvement [2]?
Answer: -10%

Question: And the HACU improvement [3]?
Answer: -12%

Question: Which results are given for `O=C(Cn1ccnc1)Nc1c2c(nc3ccccc13)CCCC2`?
Answer: HACU improvement [1]: 48%; HACU improvement [2]: 14%; HACU improvement [3]: 6%

Question: For `CC(NCC(=O)Nc1c2c(nc3ccccc13)CCCC2)C(=O)O` (stereo not given), which HACU improvement [1] is on record?
Answer: 13%

Question: And the HACU improvement [2]?
Answer: 6%

Question: What about the HACU improvement [3] of the same molecule?
Answer: -7%

Question: What does the source list for `CC1C(=O)NC(=O)N1CC(=O)Nc1c2c(nc3ccccc13)CCCC2` (stereo not given)?
Answer: HACU improvement [1]: 11%; HACU improvement [2]: 2%; HACU improvement [3]: 4%

Question: What does the source list for `O=C(CN1CCNC1=O)Nc1c2c(nc3ccccc13)CCCC2`?
Answer: HACU improvement [1]: 25%; HACU improvement [2]: 1%; HACU improvement [3]: 6%

Question: How did the HACU improvement [1] turn out when `CCC(=O)Nc1c2c(nc3ccccc13)CCCC2` was run?
Answer: 3%

Question: What about the HACU improvement [2] of the same molecule?
Answer: 1%

Question: What about the HACU improvement [3] of the same molecule?
Answer: 3%

Question: How did the HACU improvement [1] turn out when `CCCCC(=O)Nc1c2c(nc3ccccc13)CCCC2` was run?
Answer: 18%

Question: What about the HACU improvement [2] of the same molecule?
Answer: -1%

Question: What about the HACU improvement [3] of the same molecule?
Answer: -2%

Question: Which results are given for `CNCC(=O)Nc1c2c(nc3ccccc13)CCCC2`?
Answer: HACU improvement [1]: 21%; HACU improvement [2]: 18%; HACU improvement [3]: 8%

Question: What does the source list for `CN(C)CC(=O)Nc1c2c(nc3ccccc13)CCCC2`?
Answer: HACU improvement [1]: -7%; HACU improvement [2]: -13%; HACU improvement [3]: 0%

Question: What does the source list for `O=C(CN1C(=O)CNC1=O)Nc1c2c(nc3ccccc13)CCCC2`?
Answer: HACU improvement [1]: 16%; HACU improvement [2]: 0%; HACU improvement [3]: -5%

Question: What does the source list for `CC(C)C(=O)Nc1c2c(nc3ccccc13)CCCC2`?
Answer: HACU improvement [1]: 15%; HACU improvement [2]: 9%; HACU improvement [3]: 12%

Question: How did the HACU improvement [1] turn out when `O=C(CN1CCCC1=O)Nc1c2c(nc3ccccc13)CCCC2` was run?
Answer: 13%

Question: What about the HACU improvement [2] of the same molecule?
Answer: 14%

Question: And the HACU improvement [3]?
Answer: 17%

Question: How did the HACU improvement [1] turn out when `O=C(CN1CCCC1)Nc1c2c(nc3ccccc13)CCCC2` was run?
Answer: -71%

Question: What about the HACU improvement [2] of the same molecule?
Answer: -20%

Question: And the HACU improvement [3]?
Answer: 1%

Question: What does the source list for `CC(C)CC(=O)Nc1c2c(nc3ccccc13)CCCC2`?
Answer: HACU improvement [1]: 0%; HACU improvement [2]: -22%; HACU improvement [3]: 4%

Question: `CCCC(=O)Nc1c2c(nc3ccccc13)CCCC2` was tested. Which HACU improvement [1] did it give?
Answer: 28%

Question: And the HACU improvement [2]?
Answer: 24%

Question: What about the HACU improvement [3] of the same molecule?
Answer: 13%

Question: `Nc1c2c(nc3ccccc13)CCCC2` was tested. Which HACU improvement [1] did it give?
Answer: -13%

Question: What about the HACU improvement [2] of the same molecule?
Answer: 8%

Question: And the HACU improvement [3]?
Answer: 8%

Question: `CCCCCC(=O)Nc1c2c(nc3ccccc13)CCCC2` was tested. Which HACU improvement [1] did it give?
Answer: 2%

Question: What about the HACU improvement [2] of the same molecule?
Answer: 5%

Question: And the HACU improvement [3]?
Answer: 11%
